Experimental findings from the OPERA property sets (Mansouri et al. 2018) are described below.

SMILES strings stand for the structures.

A word on the melting point: it is the temperature of the solid-liquid transition. With `O=C1CCc2cccc3c2N1CC3`, the log10 vapour pressure (mmHg) is -5.92 and the melting point was 112 °C.
As usually defined, the boiling point is the temperature at which the vapour pressure of the liquid equals the pressure above it. Take `C=C(C)C`: the boiling point is -6.9 °C, the log10 Henry constant (atm·m³/mol) was -0.662, the log10 vapour pressure (mmHg) was found to be 3.36 and the melting point is -140 °C.
Take `O=NN([O-])c1ccccc1.[NH4+]`: the melting point is 164 °C.
Take `CCc1ccccc1Cl`: the boiling point is 178 °C and the melting point was -82.7 °C.
As for `Nc1ccc([N+](=O)[O-])cc1Cl`, the log10 Henry constant (atm·m³/mol) was -8.02, the melting point came to 108 °C and the ready biodegradability result is “not readily biodegradable”.
In turn, `CCCOc1ccc([N+](=O)[O-])cc1N` had a melting point of 49 °C.
For the compound `FC(Cl)C(F)(F)Cl` (configuration not stated), the boiling point came out at 29.5 °C, the log10 vapour pressure (mmHg) is 2.79 and the melting point was -78 °C.
In turn, `Nc1ccc(Cl)nc1Cl` yielded a melting point of 119 °C.
On the same count and under the same terms, the same measure for `FC(F)(F)c1cccc(C(c2ccccc2)(c2ccccc2)n2cncn2)c1`: 132 °C.
On to `Cc1c(Br)cc(Br)cc1Br`, for which the boiling point was determined as 290 °C and the melting point is 70 °C.
`BrCCCCBr`: the boiling point came to 197 °C, the log10 vapour pressure (mmHg) is -0.211 and the melting point is -16.5 °C.
Regarding `O=C(O)CCCCCCCCCCCCCCC(=O)O`, the ready biodegradability result was “readily biodegradable”.
In turn, `OCCc1ccc(Cl)cc1` registered a boiling point of 259 °C.
In the case of `O=C(NC(=O)c1c(F)cccc1F)Nc1cc(Cl)c(F)c(Cl)c1F`, the log10 vapour pressure (mmHg) is -11.2 and the melting point turned out to be 222 °C.
For `C=C(C)C1CCC(C)(O)CC1` (configuration not stated), the boiling point was 210 °C and the melting point is 32.5 °C.
The compound `CCN1C[C@]2(COC)CCC(O)[C@]34C1C(O)([C@@H](OC)[C@H]23)C1(O)C[C@H](OC)[C@H]2C[C@@H]4[C@@H]1[C@H]2OC` (some centres not stated) displayed a melting point of 214 °C.
In turn, `[N-]=[N+]=CC(=O)OC[C@H](N)C(=O)O` showed a melting point of 154 °C.
On the same count and under the same terms, the same measure for `CCCCCCCCCCCCCCCC(=O)c1ccccc1`: 59 °C; for `C#C[C@]1(O)CC[C@H]2[C@@H]3CCC4=CC(=O)CCC4=C3C=C[C@@]21C`: 169 °C.
As to `c1ccc(Cc2ccccn2)cc1`, the boiling point is 277 °C and the melting point worked out at 12.5 °C.
Take `Nc1ccc(Cl)c(C(=O)O)c1`: the melting point stood at 188 °C.
For the compound `C#CCC`, the boiling point was determined as 8 °C, the log10 vapour pressure (mmHg) came to 3.15 and the melting point was -126 °C.
`NC(=O)c1ccccc1C(N)=O` registered a melting point of 222 °C.
Take `CCC(COCCOc1c(I)cc(I)c(NC(C)=O)c1I)C(=O)O` (configuration not stated): the melting point was found to be 130 °C.
Compound `O=C(O)C1=CCCc2ccccc21` yielded a boiling point of 306 °C and a melting point of 125 °C.
The compound `CCOC(=O)N1CCNCC1` registered a boiling point of 237 °C.
Regarding `COc1ccc2c3c1O[C@H]1[C@@H](O)C=C[C@H]4[C@@H](C2)[N@@+](C)([O-])CC[C@@]341`, the melting point was 232 °C.
Same read-out and setting: next, `O=c1ccn([C@@H]2C[C@H](F)[C@@H](CO)O2)c(=O)[nH]1`: 186 °C.
In the case of `Clc1ccc(I)cc1`, the boiling point came out at 227 °C, the log10 vapour pressure (mmHg) is -1.23 and the melting point is 57 °C.
For `CNCCS(=O)(=O)O`, the melting point stood at 242 °C and the ready biodegradability result is “readily biodegradable”.
The compound `O=C(O)Cc1ccccc1Oc1ccc(Cl)cc1Cl` showed a melting point of 112 °C.
Compound `Cc1ccc(C(C)C)cc1O` showed a boiling point of 238 °C and a melting point of 1 °C.
On to `Nc1cnn(-c2ccccc2)c(=O)c1Cl`, for which the log10 Koc (L/kg) was determined as 2.08, the log10 vapour pressure (mmHg) is -6.35 and the melting point was 205 °C.
As for `O=C(O)c1ccccc1Nc1ccccc1`, the melting point worked out at 184 °C.
In the case of `CC(Cl)C(C)Cl` (configuration not stated), the boiling point was 118 °C, the log10 vapour pressure (mmHg) worked out at 1.39 and the melting point is -80 °C.
Regarding `CCCCCCCCCCCCCCCCCCC1CC(=O)OC1=O` (configuration not stated), the ready biodegradability result is “not readily biodegradable”.
Consider `O=[N+]([O-])c1c(O)cccc1O`, for which the melting point stood at 82 °C and the ready biodegradability result is given as “readily biodegradable”.
In the same order, the values of `CCCCCCCCCCCC[N+](C)(C)[O-]` are 132 °C and “readily biodegradable”.
With `CCCC`, the log10 Koa turned out to be 1.53, the log10 vapour pressure (mmHg) amounted to 3.26, the melting point is -138 °C and the ready biodegradability entry is on record as “readily biodegradable”.
For the compound `CC(=O)C=C(C)C`, the boiling point came to 130 °C, the log10 vapour pressure (mmHg) is 0.914, the melting point is -59 °C and the ready biodegradability entry is on record as “readily biodegradable”.
Compound `O=C(CO)[C@@H](O[C@H]1O[C@H](CO)[C@@H](O)[C@H](O)[C@H]1O)[C@H](O)[C@H](O)CO` yielded a melting point of 168 °C.
On to `CCC(CC)C(=O)OCCOCCOCCOC(=O)C(CC)CC`, for which the ready biodegradability entry is given as “readily biodegradable”.
For the compound `CCOC(=O)c1c(N)sc2c1CCN(Cc1ccccc1)C2`, the melting point turned out to be 112 °C.
Turning to `CCCC=CCCCCC`, the boiling point worked out at 171 °C.
As for `FC(F)(F)C(F)(F)N(C(F)(F)C(F)(F)F)C(F)(F)C(F)(F)F`, the boiling point was determined as 70.3 °C and the melting point is -110 °C.
The compound `C1CS1` came in with a boiling point of 55.5 °C and a log10 vapour pressure (mmHg) of 2.4.
